This note sets out measurements from US20250011719A1, “NEW METHOD FOR IMPROVING QUALITY OF PLATELETS” (SHANGHAI SYNVIDA BIOTECHNOLOGY CO. LTD., priority 2021, published 2025).

Molecules are shown by their SMILES.

The test system of assay [1] is human apheresis platelets. As to the kind of experiment: Storage quality of human apheresis platelets at room temperature. The assay is classed as cell-based. The settings on record: summary statement of the results of the examples; substance used individually. The protocol:
(§1) An appropriate amount of apheresis platelets was added to a 50 ml centrifuge tube (the volume should not exceed 15 ml/tube). The mouth of the 50 ml centrifuge tube was covered and fixed with a clinical platelet storage bag as a gas-permeable membrane, placed on a horizontal shaker. The speed of the shaker was determined according to the volume inside the tube, ensuring the platelets were fully shaken and fully exposed to oxygen for respiration without touching the gas-permeable membrane.
This method can simulate the storage of clinical apheresis platelets in a laboratory environment and can be used for sampling and the sampling is completed. The collected apheresis platelet samples can be used for platelet counting, flow cytometry index detection, protein collection, platelet viability detection, ATP content detection and other purposes.

Assay [2] has as its system human apheresis platelets. In words: Platelet aggregation / responsiveness to agonists of stored apheresis platelets. The assay is classed as cell-based. Here is the method:
as §1
By conventional methods, using a platelet aggregation instrument, 300 μl of 3×10^8 platelets/ml and the required […] were added to the aggregation tube and incubated at 37° C. for 3 minutes after gentle stirring. A baseline was established and the changes of an aggregation curve were observed within 5 minutes.

The test system of assay [3] is human apheresis platelets. In words: Platelet apoptosis (Annexin V flow cytometry) of stored apheresis platelets. The assay is classed as cell-based. The settings on record: for apoptosis ratio of platelets: N-acetylcysteine 5 mM, Mesna 50 uM, glutathione 200 uM, 7th day of storage, vs control group; for apoptosis ratio: Dorsomorphin 2HCl 1 uM, 4 uM, AICAR 0.1 uM, 0.5 uM, 4th day of storage, vs control. Here is the method:
as §1
Platelets were sampled according to conventional methods, then the concentration of platelets was diluted to 10^8/ml with Tyrodes's Buffer. 25 μl of platelets in the experimental group and control group were added to new EP tubes. Each tube was added with 5 μl of 10×Binding Buffer, 2 μl of FITC labeled Annexin V and 18 μl of Tyrodes's Buffer to a total of 50 μl in the reaction system. After incubating at room temperature in the dark for 15 minutes, 200 μl 1×Binding Buffer was added for detection on the machine, with a tube of unlabeled platelets as a negative control. The platelets labeled with Annexin V were detected within one hour after labeling and the FITC-positive cell population was the platelets in the process of apoptosis.

Assay [4] concerns human apheresis platelets. In words: Mitochondrial potential difference (JC1/TMRM flow cytometry) of stored apheresis platelets. The assay is classed as cell-based. Here is the method: as §1
9.1 Changes in platelet mitochondrial potential difference were detected by JC1 fluorescent dyes: A JC1 working solution was prepared according to conventional methods. Positive control platelets were treated with CCCP to reduce mitochondrial membrane potential, that is, the positive control. Sampled platelets were diluted to 10^8/ml. 25 μl of platelets was taken and added with 25 μl of JC1 working solution. After mixed and incubated at 37° C. in the dark for 30 minutes, a 200 μl of 1×JC1 staining buffer was added for detecting the fluorescence intensity on the machine. The relative ratio of red and green fluorescence was used to represent the ratio of mitochondrial depolarization.
The platelet sampling and dilution were as described above. 50 μl Tyrodes's Buffer and 0.1 μl TMRM stock solution were added to a 50 μl dilution solution, incubated at 37° C. in the dark for 30 minutes, with 500 μl Tyrodes's Buffer added for detection on the machine. The fluorescence intensity of TMRM will red shift according to the change of mitochondrial potential difference. The fluorescence intensity was used to represent the level of mitochondrial potential difference.

Assay [5] concerns human apheresis platelets. As to the kind of experiment: Mitochondrial reactive oxygen species (Mitosox) of stored apheresis platelets. It is filed as cell-based. As to conditions: for accumulation of intracellular reactive oxygen species: N-acetylcysteine 5 mM, Mesna 50 uM, glutathione 200 uM, 7th day of storage, vs control group; for mitochondrial reactive oxygen species levels: Dorsomorphin 2HCl 1 uM, 4 uM, AICAR 0.1 uM, 0.5 uM, 4th day of storage, vs control. The protocol: as §1
Using the conventional method, 25 μl platelets were diluted in equal proportions, added with 0.1 μl Mitosox reagent (5 mM) and incubated in the dark at 37° C. for 30 minutes, with 200 μl buffer added to detect the fluorescence intensity; stained the adherent cells: after centrifugation at 600 g for 5 minutes to remove the supernatant, the cells were resuspended in 200 μl Mitosox working solution, incubated at 37° C. in the dark for 30 minutes, centrifuged at 600 g for 5 minutes, washed twice with PBS and added with 200 μl PBS for resuspending and detecting the cells.

In the next assay the test system is stored mouse platelets. As to the kind of experiment: Transfusion of stored mouse PRP into WT mice. The settings on record: mouse PRP stored in vitro 1 day with NMN 0.5 mM, NAC 5 mM, AMPKi 4 uM alone or combined; biotin-labeled, infused into WT mice; PBS control. The assay is classed as in vivo. The protocol: (§2) Blood was taken from the abdominal aorta of mice. Apyrase (in a final concentration of 1 U/ml) and PGE1 (in a final concentration of 0.1 μg/ml) that can inhibit platelet aggregation was then added with to the whole blood, mixed quickly and centrifuged (1050 rpm, room temperature, 10 minutes). After two centrifuges, the upper plasma of the experimental group was sucked out, discarded and the platelet precipitate at the bottom was retained. The plasma of wild-type mice was evenly distributed to the platelet pellets of mice in the experimental group and wild-type group. The platelets were uniformly dispersed and suspended, and then preserved according to the method of human platelets.
In platelet transfusions, it is undesirable for stored platelets to be rapidly cleared from circulation. To evaluate the effects of the above compounds on the quality of platelets stored in vivo, two mouse transfusion models were used. In the first model, stored human platelets were transfused into immunodeficient NCG (NOD-Prkdcem26Cd52Il2rgem 26Cd22/NjuCrl) mice. NMN+NAC+AMPKi (NMN 0.5 mM, NAC 5 mM, AMPKi 4 uM) or PBS as a control was added. Human platelet concentrates were stored for 6 days in vitro. They were then labeled with biotin and infused into NCG mice. […] However, platelet clearance was lower in the NMN+NAC+AMPKi group compared to the control group (FIG. 8B). In another group of models, mouse PRP was stored in vitro for 1 day, added with NMN, NAC, AMPK inhibitor or NMN+NAC+AMPK inhibitor (NMN 0.5 mM, NAC 5 mM, AMPKi 4 uM) or PBS as a control. They were then labeled with biotin and infused into WT mice.

For assay [6], the system named is mouse platelets. As to the kind of experiment: Mouse ITP model (anti-CD42b antibody R300). The assay is classed as in vivo, mice. The settings on record: intravenous, combination 1 μmol NMN, 10 μmol NAC, 8 nmol AMPKi, vs control group.
Procedure: WT mice were intravenously injected with NMN, NAC, AMPK inhibitor, or NMN+NAC+AMPK inhibitor. After 30 minutes, basal platelet counts were first determined from complete blood counts using a HEMAVET automated hematology analyzer. Mouse platelets were cleared by intravenous injection of 2 μg anti-CD42b monoclonal antibody R300 (purchased from Emfret). Orbital blood was collected at different time points to monitor platelet clearance and recovery.
To evaluate the effects of NMN, NAC or AMPK inhibitor on platelet survival in ITP patients, an ITP mouse model was established by intravenous injection of a low dose of anti-CD42b antibody R300.
Assay [7] relates to mouse platelets. As to the kind of experiment: Storage of mouse platelet-rich plasma with added palmitoyl carnitine. The assay is classed as cell-based, mice. The settings on record: palmitoyl carnitine 2 μM and 10 μM; days 1 and 2 of storage; concentration-dependent trend. Here is the method: as §2, with “platelets. Whole blood was obtained from wild-type rats and wild-type mice via abdominal aortic puncture, and platelet-rich plasmas (PRP) were prepared separately for rats and mice. Platelet storage experiments were conducted, with two additional experimental groups each receiving the addition of palmitoyl carnitine at different concentrations (2 μM and 10 μM). Platelet apoptosis ratio, mitochondrial ROS level and changes in mitochondrial membrane potential were measured during storage days 0-4.” for “platelets.”

The next assay concerns rat platelets. In words: Storage of rat platelet-rich plasma with added palmitoyl carnitine. The assay is classed as cell-based, rats. The settings on record: palmitoyl carnitine 2 μM and 10 μM; days 1 and 2 of storage. The protocol:
Whole blood was obtained from wild-type rats and wild-type mice via abdominal aortic puncture, and platelet-rich plasmas (PRP) were prepared separately for rats and mice. Platelet storage experiments were conducted, with two additional experimental groups each receiving the addition of palmitoyl carnitine at different concentrations (2 μM and 10 μM). Platelet apoptosis ratio, mitochondrial ROS level and changes in mitochondrial membrane potential were measured during storage days 0-4.

Assay [8] concerns 293T cells stably transfected with CPT2, CPT2K79Q or CPT2K79R. As to the kind of experiment: Electron microscopy of mitochondria in CPT2 and CPT2 mutant stable transfected cell lines treated with palmitoylcarnitine. The assay is classed as cell-based. The settings on record: 4 hours. From the text:
A plasmid of pLVX-IRES-ZsGreen1 inserted with CPT2K79R, a plasmid of pLVX-IRES-ZsGreen1 inserted with CPT2K79Q, and a plasmid of pLVX-IRES-ZsGreen1 inserted with CPT2 were synthesized by Shanghai Sunny Biotechnology Co., Ltd. Lentiviral transfection, 293T cell infection, and stably transfected cell lines were all carried out by conventional methods.
To further verify the correlation between CPT2K79 acetylation and the accumulation of acylcarnitine, three plasmids were constructed: wild-type CPT2, CPT2K79R mutation, and CPT2K79Q mutation. These three plasmids were packaged into lentiviruses using a three-plasmid system for infecting 293T cells. The exogenous genes were integrated into the host genome, and […] stable transfected cell lines were selected through flow cytometry sorting. CPT2K79R is a CPT2 molecule with the mutation of lysine at position 79 to arginine, abolishing acetylation at position 79. CPT2K79Q is a CPT2 molecule with the mutation of lysine at position 79 to glutamine, simulating acetylation at position 79.
After treating CPT2 and CPT2 mutant stable transfected cell lines with acylcarnitine for 4 hours, the cells were fixed. Then electron microscopy was used to observe the status and structure of mitochondria in different cell lines treated with or without palmitoylcarnitine. […] In one embodiment, there were anomalies in the morphology and arrangement of mitochondrial cristae, and the cristae became disarrayed, fragmented and blurred, with bright areas appearing in the center of the mitochondria, indicating severe damage to the mitochondrial inner membrane structure.

The mark [9] stands for this setting: N-acetylcysteine 5 mM, Mesna 50 uM, glutathione 200 uM, 7th day of storage.
Where [10] appears, read: Dorsomorphin 2HCl 1 uM, 4 uM, AICAR 0.1 uM, 0.5 uM, 4th day of storage, vs control.
[11] abbreviates: added to freshly isolated platelets, second day of platelet storage, compared to the control group.

On to `CC(=O)N[C@@H](CS)C(=O)O` [N-acetylcysteine], for which the quality of platelets result in assay [1] is listed as “significantly improved”. For the same compound, in assay [2] (setting [9]), the “platelet responsiveness to stimuli” value is on record as “protected”. The “apoptosis ratio of platelets” value in assay [3] is given as “lower”. In [4] (setting [9]), the mitochondrial membrane potential result is on record as “protected”. In assay [5], the “accumulation of intracellular reactive oxygen species” value (from here on “accumulation”) was “reduce”. For the same compound, in the assay on stored mouse platelets, the “survival in vivo of stored platelets” value is reported as “better than controls”. Also, in the assay on mouse platelets [6], the platelet survival rate result was “higher” and the “recovery rate of platelet counts” value is reported as “higher”.

As for `Cl.Cl.c1cc(-c2cnn3cc(-c4ccc(OCCN5CCCCC5)cc4)cnc23)ccn1` [Dorsomorphin 2HCl], the quality of platelets entry in assay [1] is “significantly improved”. Further, the “platelet responsiveness to stimuli” value in assay [2] (setting [10]) is on record as “varying degrees of improvement”. In addition, in [3], the apoptosis ratio result is recorded as “varying degrees of improvement”. Further, in [4] (setting [10]), the mitochondrial membrane potential result is on record as “varying degrees of improvement”. In addition, the “mitochondrial reactive oxygen species levels” value in [5] is on record as “varying degrees of improvement”. Besides, the “survival in vivo of stored platelets” value in the assay on stored mouse platelets is given as “better than controls”. Further, in the assay with mouse platelets [6], the platelet survival rate result is reported as “higher” and the “recovery rate of platelet counts” value was “higher”.

Regarding `NC(=O)c1ccc[n+]([C@@H]2O[C@H](CO)[C@@H](O)[C@H]2O)c1` [NR, nicotinamide riboside], the quality of platelets entry in assay [1] is “significantly improve”.

Turning to `NC(=O)c1ccc[n+]([C@@H]2O[C@H](COP(=O)([O-])O)[C@@H](O)[C@H]2O)c1` [NMN, nicotinamide mononucleotide], the quality of platelets entry in assay [1] was “significantly improved”. Besides, in the assay with stored mouse platelets, the “survival in vivo of stored platelets” value is recorded as “better than controls”. Moreover, in the assay on mouse platelets [6], the platelet survival rate entry is listed as “higher” and the “recovery rate of platelet counts” value is “higher”.

In the case of `NC(=O)c1ncn([C@@H]2O[C@H](CO)[C@@H](O)[C@H]2O)c1N` [AICAR], the “platelet responsiveness to stimuli” value in assay [2] (setting [10]) is recorded as “detrimental”. In addition, the apoptosis ratio entry in assay [3] was “increased”. Moreover, the mitochondrial membrane potential result in assay [4] (setting [10]) was “significant decrease”. Also, in assay [5], the “mitochondrial reactive oxygen species levels” value is listed as “elevation”.

For `O=S(=O)([O-])CCS.[Na+]` [Mesna, sodium 2-mercaptoethane sulfonate], in assay [2] (setting [9]), the “platelet responsiveness to stimuli” value is listed as “protected”. The “apoptosis ratio of platelets” value in [3] was “lower”. Moreover, the mitochondrial membrane potential result in assay [4] (setting [9]) is “protected”. Further, the “accumulation” value in assay [5] is recorded as “reduce”.

With `O=C(NCc1ccncc1)Nc1ccc(S(=O)(=O)N2CC3CCC(C2)O3)cc1` [SBI-797812], the quality of platelets result in [1] is “significantly improve”.

Turning to `CCCCCCCCCCCCCCCC(=O)OC(CC(=O)[O-])C[N+](C)(C)C` (centres unmarked) [palmitoylcarnitine], the apoptosis rates entry in assay [3] (setting [11]) is “higher”. For the same compound, the mitochondrial membrane potential entry in assay [4] (setting [11]) is reported as “lower”. For the same compound, the “levels of mitochondrial reactive oxygen species” value in assay [5] (setting [11]) is “higher”. Further, in the assay on mouse platelets [7], the “status of mouse platelets” value is on record as “effectively reduced”. Besides, in the assay with rat platelets, the “status of rat platelets” value is reported as “did not cause significant changes”. In addition, the “effect on the mitochondrial status” value in assay [8] (CPT2K79Q cell line, low concentrations of palmitoylcarnitine) is reported as “particularly pronounced”; in assay [8] (CPT2K79R cell line, low-dose palmitoylcarnitine) it was “little effect”. Further, the “mitochondria (electron microscopy)” value in [8] (three cell lines, low concentrations of palmitoylcarnitine, vs group without palmitoylcarnitine) is “significantly worse”.

For the compound `OC(CNc1ccccc1)Cn1c2ccc(Br)cc2c2cc(Br)ccc21` (centres unmarked) [P7C3], in assay [1], the quality of platelets entry is listed as “significantly improve”.

`N[C@@H](CCC(=O)N[C@@H](CS)C(=O)NCC(=O)O)C(=O)O` [glutathione]: the “platelet responsiveness to stimuli” value in assay [2] (setting [9]) is “protected”. Further, in assay [3], the “apoptosis ratio of platelets” value was “lower”. Besides, the mitochondrial membrane potential result in assay [4] (setting [9]) was “protected”. The “accumulation” value in assay [5] is “reduce”.

For `NC(=O)c1cccnc1` [NAM, nicotinamide], the quality of platelets result in assay [1] was “significantly improve”.
